The target of series [1] is T1, CXCR-4 transfected U87 cell line (U87.CXCR4) (Homo sapiens, UniProt P61073).
T1 construct: expressed in transfected cells; host or cells: U87 (U87.CXCR4)
Put plainly: Intracellular CXCL-12-induced calcium mobilization assay (FLIPR). The format is cell-based. As to conditions: U87.CXCR4 cells; CXCL-12 25-50 ng/mL; compound added 15 min before; read-out: IC50 CXCL-12 Ca^2+ flux U87.CXCR4+. An outline of the steps: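 CXCL-12 (25-50 ng/mL) was the stimulus, and the intracellular calcium rise was tracked kinetically by FLIPR at 37 °C. Cells were U87.CXCR4 transfectants pre-loaded 45 min at 37 °C with 4 μM (final) Fluo-2 AM in HEPES-buffered HBSS with 0.2% BSA, pH 7.4.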
On the technique in general: Calcium flux is commonly read through the fluorescence of an indicator in the cells.

The target of series [2] is T2, Jurkat cells expressing CXCR4 (Homo sapiens, UniProt P61073).
T2 construct: endogenous in cells; host or cells: Jurkat
Put plainly: Chemokine (CXCL12-AF647) binding inhibition assay. Particulars: CXCL12-AF647 25 ng/mL, read-out: IC50 CXCL-12 binding Jurkat. In short, it runs like this:
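Cells in HBSS, 20 mM HEPES, 0.2% BSA, pH 7.4, preincubated 15 min at room temperature with compound, then 25 ng/mL CXCL12-AF647 for 30 min. After washing and paraformaldehyde fixation, bound ligand read by flow cytometry; percent inhibition calculated from MFI relative to unlabeled and ligand-only controls.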

Series [3] in a line: in vitro. Particulars: human, Caco-2, pH 7.4. An outline of the steps: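 Bidirectional permeability across Caco-2 monolayers in HBSS (pH 7.4) at a test concentration of 10 μM, incubated 0 and 90 min at 37° C (n=2). Monolayer integrity was assessed by TEER and Lucifer yellow. Papp was derived from LC-MS/MS-measured concentrations.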
Series [4] in a line: Mouse brain uptake assay (MBUA), 3 mg/kg IV, 0-1 h, 3 time points. As to conditions: for Kp / clearance / half-life / AUC(0-t) / Kp uu: male; for Kp: CD1, mouse, brain/plasma, iv, 3 mg/kg; for clearance / half-life: CD1, plasma, 3 time points; for clearance / half-life / AUC(0-t) / Kp uu / fraction unbound: mouse; for clearance / half-life / AUC(0-t) / Kp uu: 3 mg/kg IV, 0-1 h; for half-life: read-out: t½ (converted); for AUC(0-t) / Kp uu: CD1; for Kp uu: unbound brain/unbound plasma. The series is classed as in vivo, male CD1 mice. Here is the method: Example 38: Pharmacokinetics and Brain Penetration Experiment to Determine Brain and Plasma Concentrations of Compounds after IV Administration to Male CD1 Mice
The study design (9 animals) consisted of administrating the drug (IV: 3 mg/kg (5 mL/kg) via tail vein injection) and collecting samples at terminal bleeding for plasma and brain at 0.083, 0.5 and 1 h. The IV dosing solution was prepared in 50 mM citrate buffer (pH 4.0) at 0.6 mg/mL. The blood collection was performed as follows: the animal was restrained manually and approximately 150 μL blood/time point was collected into a dipotassium EDTA tube via retro orbital puncture under anesthesia with isoflurane. The blood sample was put on ice and centrifuged to obtain a plasma sample (2000 g, 5 min under 4° C.) within 15 minutes. The brain collection was performed as follows: a mid-line incision was made in the animal's scalp and the skin was retracted. Using small bone cutters and rongeurs, the skull overlying the brain was removed. The brain was removed using a spatula and the brain rinsed with cold saline. The brain was placed in screw-top tubes, and the tubes were stored at −70° C. until analysis.
An aliquot of 30 μL sample was added to 150 μL MeCN containing 50 ng/mL IS (Dexamethasone). The mixture was vortexed for 5 min and centrifuged at 14,000 rpm for 5 min. An aliquot of 5 μL supernatant was injected for LC-MS/MS analysis.
An aliquot of 30 μL brain homogenate (brain:PBS=1:3, w/v) sample was added to 150 μL IS in MeCN (Dexamethasone, 50 ng/mL). The mixture was vortexed for 5 min and centrifuged at 14,000 rpm for 5 min. An aliquot of 5 μL supernatant was injected for LC-MS/MS analysis.
The sample analysis was performed on LCMS/MS-003 (API4000, triple quadruple) under the following conditions: positive ion, ESI, MRM detection using dexamethasone as internal standard. HPLC conditions: mobile phase A: H2O (0.025% formic acid (FA) with 1 mM NH4OAc); mobile phase B: MeOH (0.025% FA with 1 mM NH4OAc) on Waters X-Bridge C18 (2.1×50 mm, 2.5 μm) column at 60° C.

The mark [5] stands for this setting: fraction unbound to brain proteins, read-out: Fu (b) %.
The mark [6] stands for this setting: fraction unbound to plasma proteins, read-out: Fu (p) %.

The structures appear in SMILES notation. Like-named read-outs stand apart in the source and are kept apart here.

T2 sequence (P61073 whole entry): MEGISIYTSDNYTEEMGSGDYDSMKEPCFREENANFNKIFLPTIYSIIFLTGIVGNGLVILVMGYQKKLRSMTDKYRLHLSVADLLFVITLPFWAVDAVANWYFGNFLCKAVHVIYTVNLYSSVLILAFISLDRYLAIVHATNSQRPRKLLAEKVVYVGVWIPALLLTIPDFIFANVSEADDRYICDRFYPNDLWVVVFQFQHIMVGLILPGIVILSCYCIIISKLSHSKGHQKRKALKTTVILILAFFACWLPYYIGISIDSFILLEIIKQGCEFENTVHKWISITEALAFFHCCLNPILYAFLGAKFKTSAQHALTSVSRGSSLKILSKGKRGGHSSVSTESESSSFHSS
T1 sequence (P61073 whole entry): as above

One may read the IC50 as the concentration at which inhibition is half-maximal. A word on the Papp A→B: it is how fast a substance crosses the layer from the apical side. A high value points to ready permeation. Usually Papp B→A stands for the apparent permeability from the basolateral to the apical side of a cell layer. A word on the efflux ratio: it is a quotient of directional permeabilities that is used to spot active efflux. The Kp is tissue or fluid exposure divided by exposure in the circulation. Broadly, the clearance is the volume of plasma or blood freed of the substance per unit of time. The low end stands for a low capacity for elimination, the high end for a high capacity for elimination. For the compound `COc1cccnc1[C@@H]1CCC[C@H](c2nc3cccc(N4CCN(C)CC4)c3[nH]2)N1` [I-127], in series [1], the IC50 was in the range of 0.01 to 100 nM. In series [2], the IC50 was 0.01 to 100 nM. Also, in series [3], the apical-to-basolateral permeability (Papp A→B) at 90 min, 10 μM was in the range of 0.1 to 10 ×10⁻⁶ cm/s; the Papp B→A at 90 min, 10 μM was 10 to 30 ×10⁻⁶ cm/s; the efflux ratio at 90 min, 10 μM lay within 0.1 to 10. In series [4], the Kp is 0.31, the clearance was 132 mL/min/kg and the half-life was 23.2 min. Also, the AUC(0-t) in series [4] (brain, read-out: AUClast (b)) came to 99.7 ng·h/mL. For the same compound, the AUC(0-t) in series [4] (plasma, read-out: AUClast (P)) turned out to be 313 ng·h/mL. For the same compound, the Kp uu in series [4] (read-out: Kp, uu) amounted to 0.07. Moreover, the fraction unbound in series [4] (setting [5]) amounted to 0.048. In addition, the fraction unbound in series [4] (setting [6]) amounted to 0.215.

Regarding `Cc1cccnc1[C@@H]1CCC[C@H](c2nc3ccccc3n2CC2CCN(C(C)C)CC2)N1C` [I-23, 1-((1-isopropylpiperidin-4-yl)methyl)-2-((2R,6S)-1-methyl-6-(3-methylpyridin-2-yl)piperidin-2-yl)-1H-benzo[d]imidazole], the IC50 in series [1] was 0.01 to 100 nM. Besides, the IC50 in series [2] was 0.01 to 100 nM. In series [3], the apical-to-basolateral permeability (Papp A→B) at 90 min, 10 μM is 0.1 to 10 ×10⁻⁶ cm/s; the Papp B→A at 90 min, 10 μM is 0.1 to 10 ×10⁻⁶ cm/s; the efflux ratio at 90 min, 10 μM lay in the range of 0.1 to 10. Also, in series [4], the concentration ratio (Kp) is 0.41, the clearance was 375 mL/min/kg, the half-life was 18.1 min and the Kp uu came out at 0. Moreover, the AUC(0-t) in series [4] (brain, read-out: AUClast (b)) came to 49.7 ng·h/mL. Moreover, in series [4] (plasma, read-out: AUClast (P)), the AUC(0-t) came to 120 ng·h/mL. Also, in series [4] (setting [5]), the fraction unbound came out at 0.002. Besides, in series [4] (setting [6]), the fraction unbound amounted to 0.189.

On to `Cc1cccnc1[C@@H]1CCC[C@H](c2nc3cccc(N4CCN(C)CC4)c3[nH]2)N1` [I-83], for which the IC50 in series [1] was 0.01 to 100 nM. Besides, the concentration for half-maximal inhibition (IC50) in series [2] was in the range of 0.01 to 100 nM. In addition, in series [3], the Papp A→B at 90 min, 10 μM was 0.1 to 10 ×10⁻⁶ cm/s; the Papp B→A at 90 min, 10 μM was 10 to 30 ×10⁻⁶ cm/s; the efflux ratio at 90 min, 10 μM lay in the range of 0.1 to 10. Also, in series [4], the Kp is 0.35, the clearance was 101 mL/min/kg and the half-life is 38.2 min. Moreover, the AUC(0-t) in series [4] (brain, read-out: AUClast (b)) turned out to be 112 ng·h/mL. The AUC(0-t) in series [4] (plasma, read-out: AUClast (P)) is 316 ng·h/mL. In addition, in series [4] (read-out: Kp, uu), the Kp uu is 0.04. Further, the fraction unbound in series [4] (setting [5]) stood at 0.018. For the same compound, the fraction unbound in series [4] (setting [6]) worked out at 0.163.

The values above are taken from US10988465B2, “CXCR4 inhibitors and uses thereof” (X4 Pharmaceuticals, Inc., priority 2016, dated 2021).
